Test results published in the supplement of paper PMC13380429.

How the values were obtained:
A549-ACE2 [1] = assay: drug-induced phospholipidosis relative to tamoxifen; higher = more phospholipidosis
A549-ACE2 [2] = assay: phospholipidosis EC50; higher = less potent phospholipidosis inducer
U2OS [3] = assay: cell viability relative to DMSO; higher = less toxic; settings: 72 h
HepG2 [4] = assay: as above; settings: 72 h
Calu-3 [5] = assay: as above; settings: 72 h
Caco-2 [6] = assay: as above; settings: 72 h
Vero E6 [7] = assay: as above; settings: 72 h
U2OS [8] = assay: drug sensitivity score (DSS) for viability; higher = more toxic; extreme values may be limits of the assay; settings: 72 h
HepG2 [9] = assay: as above; settings: 72 h
Calu-3 [10] = assay: as above; settings: 72 h
Caco-2 [11] = assay: as above; settings: 72 h
Vero E6 [12] = assay: as above; settings: 72 h
[13] = system: A549-ACE2 infected with SARS-CoV-2; assay: SARS-CoV-2 infection rate relative to DMSO; higher = more infection; settings: 24 h
Calu-3 [14] = assay: relative viability EC50 (midpoint between 100% and the lowest measured viability); higher = less toxic; settings: 72 h
Caco-2 [15] = assay: as above; settings: 72 h
Vero E6 [16] = assay: as above; settings: 72 h
[17] = system: A549-ACE2 infected with SARS-CoV-2; assay: cell count relative to DMSO; higher = less toxic; settings: 24 h
[18] = system: A549-ACE2 infected with SARS-CoV-2; assay: morphology score (similarity to uninfected cells); higher = more like uninfected cells; settings: 24 h
U2OS [19] = assay: relative viability EC50 (midpoint between 100% and the lowest measured viability); higher = less toxic; settings: 72 h
HepG2 [20] = assay: as above; settings: 72 h

COCC(=O)O[C@]1(CCN(C)CCCc2nc3ccccc3[nH]2)CCc2cc(F)ccc2[C@@H]1C(C)C [mibefradil]
drug-induced phospholipidosis [%], A549-ACE2 [1]
Settings	0.3 µM	0.833333 µM	3.33333 µM	6.66667 µM	10 µM	30 µM
24 h	-2.56	5.28	65.2	87.9	115	45.3
48 h	0.45	7.22	63.5	96.7	118	–
72 h	4.04	7.42	45.4	91.8	122	–

Settings	SARS-CoV-2 infection rate [%]	cell count [%]	cell viability [%]	morphology score	phospholipidosis EC50 [µM]
A549-ACE2 [2], 24 h	–	–	–	–	2.94
A549-ACE2 [2], 48 h	–	–	–	–	4.35
A549-ACE2 [2], 72 h	–	–	–	–	7.83
Caco-2 [6], 1 nM	–	–	101	–	–
Caco-2 [6], 10 nM	–	–	90.3	–	–
Caco-2 [6], 100 nM	–	–	101	–	–
Caco-2 [6], 1000 nM	–	–	87.4	–	–
Caco-2 [6], 10000 nM	–	–	45.8	–	–
Calu-3 [5], 1 nM	–	–	99.8	–	–
Calu-3 [5], 10 nM	–	–	105	–	–
Calu-3 [5], 100 nM	–	–	109	–	–
Calu-3 [5], 1000 nM	–	–	101	–	–
Calu-3 [5], 10000 nM	–	–	7.2	–	–
HepG2 [4], 1 nM	–	–	99	–	–
HepG2 [4], 10 nM	–	–	97.7	–	–
HepG2 [4], 100 nM	–	–	88.2	–	–
HepG2 [4], 1000 nM	–	–	98.3	–	–
HepG2 [4], 10000 nM	–	–	50.3	–	–
U2OS [3], 1 nM	–	–	103	–	–
U2OS [3], 10 nM	–	–	97.9	–	–
U2OS [3], 100 nM	–	–	98.7	–	–
U2OS [3], 1000 nM	–	–	90.9	–	–
U2OS [3], 10000 nM	–	–	65.6	–	–
Vero E6 [7], 1 nM	–	–	94.7	–	–
Vero E6 [7], 10 nM	–	–	98.8	–	–
Vero E6 [7], 100 nM	–	–	92.9	–	–
Vero E6 [7], 1000 nM	–	–	91.4	–	–
Vero E6 [7], 10000 nM	–	–	89	–	–
[13], 0.3 µM	102	–	–	–	–
[13], 3 µM	32	–	–	–	–
[13], 10 µM	9	–	–	–	–
[13], 30 µM	84	–	–	–	–
[17], 0.3 µM	–	100	–	–	–
[17], 3 µM	–	125	–	–	–
[17], 10 µM	–	119	–	–	–
[17], 30 µM	–	12	–	–	–
[18], 0.3 µM	–	–	–	-0.1	–
[18], 3 µM	–	–	–	0.85	–
[18], 10 µM	–	–	–	0.71	–
[18], 30 µM	–	–	–	-0.08	–

Settings	drug sensitivity score	relative viability EC50 [µM]
Caco-2 [11]	4.9	–
Caco-2 [15]	–	1.61
Calu-3 [10]	5.1	–
Calu-3 [14]	–	3.24
HepG2 [9]	2.8	–
U2OS [8]	3	–
Vero E6 [12]	0	–
Vero E6 [16]	–	> 10

COC[C@H](NC(=O)c1cnc(C)s1)C(=O)N[C@@H](COC)C(=O)N[C@@H](Cc1ccccc1)C(=O)[C@@]1(C)CO1 [oprozomib]
A549-ACE2 [1], 24 h
Settings	drug-induced phospholipidosis [%]
0.3 µM	-19.8
0.833333 µM	-14.9
3.33333 µM	-36.6

Settings	SARS-CoV-2 infection rate, [13] [%]	cell count, [17] [%]	cell viability, Caco-2 [6] [%]	cell viability, Calu-3 [5] [%]	cell viability, HepG2 [4] [%]	cell viability, U2OS [3] [%]	cell viability, Vero E6 [7] [%]	morphology score, [18]
1 nM	–	–	103	92.4	114	103	106	–
10 nM	–	–	94.8	102	99.3	93.8	103	–
100 nM	–	–	18.9	25.4	27.5	53.9	72.4	–
0.1 µM	76	87	–	–	–	–	–	0.41
0.3 µM	95	83	–	–	–	–	–	0.31
1000 nM	–	–	8.5	4.2	4.6	0.2	16.3	–
1 µM	64	74	–	–	–	–	–	0.24
3 µM	33	59	–	–	–	–	–	0.24
10000 nM	–	–	5.5	4.5	-0.1	-0.3	4.2	–

Settings	drug sensitivity score	relative viability EC50 [µM]
Caco-2 [11]	27.4	–
Caco-2 [15]	–	0.0409
Calu-3 [10]	25.9	–
Calu-3 [14]	–	0.0607
HepG2 [9]	26.4	–
HepG2 [20]	–	0.0661
U2OS [8]	23.3	–
U2OS [19]	–	0.109
Vero E6 [12]	18.7	–
Vero E6 [16]	–	0.209

C[C@@H]1CN(CCCn2c3ccccc3c3ccccc32)C[C@H](C)N1 [rimcazole]
drug-induced phospholipidosis [%], A549-ACE2 [1]
Settings	0.3 µM	0.833333 µM	3.33333 µM	6.66667 µM	10 µM	30 µM
24 h	4.49	10.3	68.5	99.3	102	118
48 h	7.19	8.94	52.5	90.8	105	135
72 h	8.99	8.76	45.8	87	106	137

Settings	SARS-CoV-2 infection rate [%]	cell count [%]	cell viability [%]	morphology score	phospholipidosis EC50 [µM]
A549-ACE2 [2], 24 h	–	–	–	–	2.9
A549-ACE2 [2], 48 h	–	–	–	–	5.12
A549-ACE2 [2], 72 h	–	–	–	–	5.72
Caco-2 [6], 1 nM	–	–	96	–	–
Caco-2 [6], 10 nM	–	–	99.5	–	–
Caco-2 [6], 100 nM	–	–	93.4	–	–
Caco-2 [6], 1000 nM	–	–	90.8	–	–
Caco-2 [6], 10000 nM	–	–	87	–	–
Calu-3 [5], 1 nM	–	–	103	–	–
Calu-3 [5], 10 nM	–	–	88.6	–	–
Calu-3 [5], 100 nM	–	–	100	–	–
Calu-3 [5], 1000 nM	–	–	90.2	–	–
Calu-3 [5], 10000 nM	–	–	60.1	–	–
HepG2 [4], 1 nM	–	–	106	–	–
HepG2 [4], 10 nM	–	–	105	–	–
HepG2 [4], 100 nM	–	–	98	–	–
HepG2 [4], 1000 nM	–	–	106	–	–
HepG2 [4], 10000 nM	–	–	76.4	–	–
U2OS [3], 1 nM	–	–	100	–	–
U2OS [3], 10 nM	–	–	98.1	–	–
U2OS [3], 100 nM	–	–	105	–	–
U2OS [3], 1000 nM	–	–	96.8	–	–
U2OS [3], 10000 nM	–	–	96.4	–	–
Vero E6 [7], 1 nM	–	–	97.9	–	–
Vero E6 [7], 10 nM	–	–	97.9	–	–
Vero E6 [7], 100 nM	–	–	94.4	–	–
Vero E6 [7], 1000 nM	–	–	98.2	–	–
Vero E6 [7], 10000 nM	–	–	81.7	–	–
[13], 0.3 µM	104	–	–	–	–
[13], 3 µM	43	–	–	–	–
[13], 10 µM	13	–	–	–	–
[13], 30 µM	41	–	–	–	–
[17], 0.3 µM	–	108	–	–	–
[17], 3 µM	–	122	–	–	–
[17], 10 µM	–	117	–	–	–
[17], 30 µM	–	101	–	–	–
[18], 0.3 µM	–	–	–	0.08	–
[18], 3 µM	–	–	–	0.76	–
[18], 10 µM	–	–	–	0.81	–
[18], 30 µM	–	–	–	0.11	–

Settings	drug sensitivity score	relative viability EC50 [µM]
Caco-2 [11]	0.2	–
Caco-2 [15]	–	> 10
Calu-3 [10]	3.5	–
HepG2 [9]	0.6	–
HepG2 [20]	–	> 10
U2OS [8]	0	–
U2OS [19]	–	> 10
Vero E6 [12]	0.7	–
Vero E6 [16]	–	> 10
